Source: ChEMBL document CHEMBL1154377, “Evaluation of basic, heterocyclic ring systems as templates for use as potassium competitive acid blockers (pCABs)” (Bioorg Med Chem Lett, 2009)
Calls of active or inactive are those of the source. No cut-off for these calls is given here.

Tests used:
[1] = molecular target: Cytochrome P450 2D6 (Homo sapiens, UniProt P10635); experiment: Inhibition of CYP2D6; format: ADME
[2] = molecular target: Cytochrome P450 2C19 (Homo sapiens, UniProt P33261); experiment: Inhibition of CYP2C19; format: ADME
Sequence of Cytochrome P450 2C19 (P33261 whole entry): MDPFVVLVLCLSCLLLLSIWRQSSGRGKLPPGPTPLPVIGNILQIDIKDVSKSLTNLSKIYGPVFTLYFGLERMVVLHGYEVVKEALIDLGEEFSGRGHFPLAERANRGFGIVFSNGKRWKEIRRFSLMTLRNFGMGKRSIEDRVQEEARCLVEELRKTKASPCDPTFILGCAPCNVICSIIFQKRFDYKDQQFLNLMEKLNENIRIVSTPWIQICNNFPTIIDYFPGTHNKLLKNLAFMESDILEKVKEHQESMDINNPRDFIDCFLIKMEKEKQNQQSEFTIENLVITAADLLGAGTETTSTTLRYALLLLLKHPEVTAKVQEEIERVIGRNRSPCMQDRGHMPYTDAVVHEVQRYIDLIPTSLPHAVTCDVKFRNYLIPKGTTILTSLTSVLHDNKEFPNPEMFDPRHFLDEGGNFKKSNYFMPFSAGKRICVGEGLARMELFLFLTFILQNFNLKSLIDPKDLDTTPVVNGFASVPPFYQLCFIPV

[3] = molecular target: Cytochrome P450 2C9 (Homo sapiens, UniProt P11712)
Sequence of Cytochrome P450 2C9 (P11712 whole entry): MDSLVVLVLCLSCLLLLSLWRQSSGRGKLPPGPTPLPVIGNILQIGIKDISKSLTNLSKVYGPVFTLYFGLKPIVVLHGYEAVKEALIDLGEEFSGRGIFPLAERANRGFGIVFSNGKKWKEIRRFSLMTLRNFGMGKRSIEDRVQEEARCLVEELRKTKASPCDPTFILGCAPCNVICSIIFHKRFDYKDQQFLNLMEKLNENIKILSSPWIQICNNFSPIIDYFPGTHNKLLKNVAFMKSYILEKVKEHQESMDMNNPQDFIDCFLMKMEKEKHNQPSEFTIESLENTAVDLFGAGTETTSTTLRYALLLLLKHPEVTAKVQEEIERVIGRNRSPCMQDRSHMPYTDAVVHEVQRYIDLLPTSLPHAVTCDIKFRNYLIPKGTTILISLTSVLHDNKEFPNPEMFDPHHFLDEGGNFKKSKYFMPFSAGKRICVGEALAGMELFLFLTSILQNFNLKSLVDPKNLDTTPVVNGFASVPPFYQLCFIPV

[4] = Inhibition of H+/K+ ATPase in parietal cells assessed as inhibition of pentagastrin-stimulated [14C]aminopyrine accumulation at 50 µM
[5] = Intrinsic clearance in rat liver microsomes; format: ADME, Microsome
[6] = Inhibition of H+/K+ ATPase at pH 7.4
[7] = Intrinsic clearance in dog liver microsomes; format: ADME, Canis lupus familiaris, Microsome
[8] = molecular target: T1, Cytochrome P450 3A4 (Homo sapiens, UniProt P08684); experiment: Inhibition of CYP3A4 using diethoxyfluorescein substrate; format: ADME
T1 sequence (P08684 whole entry): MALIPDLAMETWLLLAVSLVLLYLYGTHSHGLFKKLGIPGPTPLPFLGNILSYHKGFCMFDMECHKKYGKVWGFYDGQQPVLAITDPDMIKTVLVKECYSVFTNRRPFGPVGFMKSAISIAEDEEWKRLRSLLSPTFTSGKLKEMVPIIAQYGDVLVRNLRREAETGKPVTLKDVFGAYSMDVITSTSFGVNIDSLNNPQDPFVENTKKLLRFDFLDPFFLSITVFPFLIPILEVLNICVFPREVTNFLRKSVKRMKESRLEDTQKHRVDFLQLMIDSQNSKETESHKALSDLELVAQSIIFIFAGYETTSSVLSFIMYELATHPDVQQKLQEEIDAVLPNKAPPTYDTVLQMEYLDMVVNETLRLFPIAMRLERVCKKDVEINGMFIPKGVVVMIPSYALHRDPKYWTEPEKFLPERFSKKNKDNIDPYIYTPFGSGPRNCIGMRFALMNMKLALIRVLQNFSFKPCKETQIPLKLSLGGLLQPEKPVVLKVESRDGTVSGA

[9] = molecular target: T2, Cytochrome P450 1A2 (Homo sapiens, UniProt P05177); experiment: Inhibition of CYP1A2; format: ADME
T2 sequence (P05177 whole entry): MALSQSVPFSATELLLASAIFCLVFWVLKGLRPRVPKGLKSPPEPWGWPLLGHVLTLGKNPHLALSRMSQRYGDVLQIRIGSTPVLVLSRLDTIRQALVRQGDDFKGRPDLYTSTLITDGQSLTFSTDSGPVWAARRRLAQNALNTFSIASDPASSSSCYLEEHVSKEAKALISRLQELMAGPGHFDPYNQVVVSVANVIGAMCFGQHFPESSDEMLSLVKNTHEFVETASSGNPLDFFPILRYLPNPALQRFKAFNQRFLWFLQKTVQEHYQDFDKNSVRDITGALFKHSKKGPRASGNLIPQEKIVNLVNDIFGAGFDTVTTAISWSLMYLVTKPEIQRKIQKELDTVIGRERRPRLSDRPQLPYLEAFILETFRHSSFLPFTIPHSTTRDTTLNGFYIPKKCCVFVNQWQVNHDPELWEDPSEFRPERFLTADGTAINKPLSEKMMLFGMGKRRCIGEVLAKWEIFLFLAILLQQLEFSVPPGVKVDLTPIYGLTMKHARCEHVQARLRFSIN

[10] = Dissociation constant, pKa of the compound; format: physicochemical; details: read-out: pKa
[11] = Chromatographic hydrophobicity index at pH 7.4 by fast gradient HPLC; format: physicochemical; details: buffer
[12] = Intrinsic clearance in human liver microsomes; format: ADME, Microsome
[13] = molecular target: T1, Cytochrome P450 3A4; experiment: Inhibition of CYP3A4 using 7-benzyloxyquinoline substrate; format: ADME
[14] = Inhibition of H+/K+ ATPase in parietal cells assessed as inhibition of pentagastrin-stimulated [14C]aminopyrine accumulation at 1 uM; format: cell-based
[15] = Inhibition of H+/K+ ATPase in parietal cells assessed as inhibition of histamine-stimulated [14C]aminopyrine accumulation
[16] = molecular target: CYP3A4 (Homo sapiens, UniProt P08684); experiment: Inhibition of CYP3A4 assessed as ratio of IC50 at 0 mins to IC50 at 10 mins using diethoxyfluorescein substrate; format: ADME; details: probe diethoxyfluorescein; read-out: Ratio IC50
Sequence of CYP3A4 (P08684 whole entry): as the sequence (P08684 whole entry) above

[17] = molecular target: CYP2D6 (Homo sapiens, UniProt P10635); experiment: Inhibition of CYP2D6 assessed as ratio of IC50 at 0 mins to IC50 at 10 mins; format: ADME; details: read-out: Ratio IC50
Sequence of CYP2D6 (P10635 whole entry): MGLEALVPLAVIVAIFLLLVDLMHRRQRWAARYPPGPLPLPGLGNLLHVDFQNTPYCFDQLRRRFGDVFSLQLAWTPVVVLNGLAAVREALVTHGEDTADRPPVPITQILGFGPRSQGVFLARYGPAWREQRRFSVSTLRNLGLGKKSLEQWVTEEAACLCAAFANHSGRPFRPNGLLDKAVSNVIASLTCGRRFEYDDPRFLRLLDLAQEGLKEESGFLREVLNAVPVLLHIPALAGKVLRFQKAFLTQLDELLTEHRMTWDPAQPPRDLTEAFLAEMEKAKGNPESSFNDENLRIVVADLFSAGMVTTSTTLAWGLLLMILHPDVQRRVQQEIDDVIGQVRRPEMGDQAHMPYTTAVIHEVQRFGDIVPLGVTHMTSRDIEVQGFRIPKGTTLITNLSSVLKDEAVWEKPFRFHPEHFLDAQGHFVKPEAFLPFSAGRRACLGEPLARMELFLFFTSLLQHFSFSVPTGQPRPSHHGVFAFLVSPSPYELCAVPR

Sequence of Cytochrome P450 2D6 (P10635 whole entry): as above

Row | pIC50 [6] | pKa [10] | chromatographic logD [11] | pIC50 [14] | SMILES | IC50 [1] | IC50 [2] | IC50 [3] | inhibition [4] | CLint scaled [5] | CLint scaled [7] | IC50 [8] | IC50 [9] | CLint scaled [12] | IC50 [13] | IC50 [15] | IC50 shift [16] | IC50 shift [17]
1 | 6.8 | 9.14 | 2.04 |  | Cc1cccc(C)c1CNc1nccc2c1cc(C)n2C | < 0.1 µM | 6.9 µM | 66 µM | 22% | 28 mL/min/kg | 17 mL/min/kg | 3.1 µM | 41 µM | 3.8 mL/min/kg | 4.3 µM |  |  | 
2 | 4 |  | 3.5 | inactive | Cc1cccc(C)c1CNc1cccn2c(C)nnc12 |  |  |  |  |  |  |  |  |  |  |  |  | 
3 | 4.8 | 7.42 | 3.28 |  | Cc1cccc(C)c1CNc1ccnc2c1cc(C)n2C |  |  |  | 36% |  |  |  |  |  |  |  |  | 

Row | SMILES | pIC50 [6] | pKa [10] | chromatographic logD [11] | pIC50 [14] | IC50 [1] | IC50 [2] | IC50 [3] | inhibition [4] | CLint scaled [5] | CLint scaled [7] | IC50 [8] | IC50 [9] | CLint scaled [12] | IC50 [13] | IC50 [15] | IC50 shift [16] | IC50 shift [17]
4 | Cc1c(C)n(C[C@H]2C[C@@H]2C)c2c(OCc3ccc(F)cc3)nncc12 | 6.8 |  |  |  | 4.4 µM | 5.1 µM | 0.8 µM |  | 30 mL/min/kg | 38 mL/min/kg | 6 µM | 1.2 µM | 16 mL/min/kg | 14 µM | 0.282 µM | 1.2 | 0.6
